According to paper doi:10.1101/2025.10.21.683780 (bioRxiv, 2025):

Key:
OAT4 = target: T1, OAT4 (Homo sapiens, UniProt Q9NSA0); assay: inhibition of methotrexate uptake in OAT4-expressing HEK293 cells; also transported; type: cell-based; details: read-out: Dicloxacillin / IC50 (95% CI)
T1 construct: gene SLC22A11
T1 sequence (Q9NSA0 1-550): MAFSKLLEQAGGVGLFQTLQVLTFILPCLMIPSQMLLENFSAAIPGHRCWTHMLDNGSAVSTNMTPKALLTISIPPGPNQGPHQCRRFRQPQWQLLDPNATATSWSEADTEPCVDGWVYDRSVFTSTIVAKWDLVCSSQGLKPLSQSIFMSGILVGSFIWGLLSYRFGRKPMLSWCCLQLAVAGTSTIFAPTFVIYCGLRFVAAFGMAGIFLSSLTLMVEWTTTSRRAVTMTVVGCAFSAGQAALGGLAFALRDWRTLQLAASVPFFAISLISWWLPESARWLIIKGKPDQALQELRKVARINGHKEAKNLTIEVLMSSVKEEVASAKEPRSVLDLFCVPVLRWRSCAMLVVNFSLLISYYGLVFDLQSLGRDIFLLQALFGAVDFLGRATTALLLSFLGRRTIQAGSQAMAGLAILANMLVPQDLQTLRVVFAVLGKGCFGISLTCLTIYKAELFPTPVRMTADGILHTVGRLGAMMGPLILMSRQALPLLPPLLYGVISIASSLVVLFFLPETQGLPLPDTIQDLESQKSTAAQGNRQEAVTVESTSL

OATP1B3 = target: T2, OATP1B3 (Homo sapiens, UniProt Q9NPD5); type: cell-based; details: hek293 cells
T2 construct: gene SLCO1B3
T2 sequence (Q9NPD5 1-702): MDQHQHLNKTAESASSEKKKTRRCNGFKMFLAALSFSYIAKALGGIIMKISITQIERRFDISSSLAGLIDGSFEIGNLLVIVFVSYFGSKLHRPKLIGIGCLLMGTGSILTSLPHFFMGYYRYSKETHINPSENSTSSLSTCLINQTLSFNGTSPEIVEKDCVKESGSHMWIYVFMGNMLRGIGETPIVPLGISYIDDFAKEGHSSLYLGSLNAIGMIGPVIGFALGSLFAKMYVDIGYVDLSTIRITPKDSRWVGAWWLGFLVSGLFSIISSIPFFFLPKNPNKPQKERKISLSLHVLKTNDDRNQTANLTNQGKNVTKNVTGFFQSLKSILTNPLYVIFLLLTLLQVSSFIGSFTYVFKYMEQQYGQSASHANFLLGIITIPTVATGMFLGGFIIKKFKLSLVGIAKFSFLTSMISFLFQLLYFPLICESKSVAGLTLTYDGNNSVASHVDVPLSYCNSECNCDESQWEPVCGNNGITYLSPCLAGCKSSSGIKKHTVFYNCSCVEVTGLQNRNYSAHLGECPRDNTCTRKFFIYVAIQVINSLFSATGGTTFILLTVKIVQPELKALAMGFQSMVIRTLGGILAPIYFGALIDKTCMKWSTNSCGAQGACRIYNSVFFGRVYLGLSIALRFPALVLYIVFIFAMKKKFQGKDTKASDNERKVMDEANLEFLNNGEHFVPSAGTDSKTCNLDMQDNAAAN

IC50 (OAT4): 7.23 µM
IC50 (OATP1B3): 6.68 µM
Structure (SMILES): Cc1onc(-c2c(Cl)cccc2Cl)c1C(=O)N[C@@H]1C(=O)N2[C@@H]1SC(C)(C)[C@@H]2C(=O)O [dicloxacillin]
